Experiments:
Assay type in all cases: cell-based
[1] = target: T1, homomeric KV7.4 channel (KCNQ4) (Homo sapiens, UniProt P56696); experiment: Automated patch-clamp (Qube) counter-screening assay against KV7.4 channel; conditions: CHO-K1 cells expressing KV7.4; class by maximal shift in the Vhalf at 30 μM
T1 construct: host or cells: CHO-K1
Method in brief: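 CHO-K1 cells stably expressing homomeric human KV7.4 were recorded on the Qube automated patch clamp. Ten concentrations (1:3 dilutions from 30 μM) were tested in quadruplicate. The mean Vhalf shift was fitted with a 4-parameter logistic to give EC50 and maximal Vhalf shift, and selectivity was based on the shift at 30 μM.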

[2] = target: T2, heteromeric KV7.2/KV7.3 channels (KCNQ2, KCNQ3) (Homo sapiens, UniProt O43525+O43526); experiment: Automated patch-clamp (Sophion Qube 384) potency assay against KV7.2/KV7.3 channels; conditions: CHO-K1/Kv7.2/Kv7.3 cells; for EC50: EC50 from concentration-response of shift in Vhalf, 10 concentrations up to 30 μM, read-out: Kv7.2/7.3 EC50; for Kv7.2/7.3 ΔV1/2: maximal shift in the Vhalf from the top of the curve
T2 construct: expressed in transfected cells; host or cells: CHO-K1
Method in brief: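 Whole-cell automated patch clamp on CHO-K1 cells stably expressing human KV7.2/KV7.3, held at −80 mV; I-V steps −100 to +20 mV (1 s) with 0 mV tail pulses, Boltzmann-fitted activation curves. Ten concentrations (1:3 from 30 μM, quadruplicate) versus 0.3% DMSO control; EC50 and maximal shift from 4-parameter fits of Vhalf shift.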

[3] = target: T3, heteromeric KV7.3/KV7.5 channel (KCNQ3, KCNQ5) (Homo sapiens, UniProt O43525+Q9NR82); experiment: Automated patch-clamp counter-screening against KV7.3/KV7.5 channel; conditions: HEK293 cells expressing Kv7.3/KV7.5; class by maximal shift in the Vhalf at 30 μM
T3 construct: host or cells: HEK293
Method in brief: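 HEK293 cells with constitutive Kv7.3 and tetracycline-inducible Kv7.5 were recorded by automated patch clamp. Ten concentrations (1:3 series from 30 μM, quadruplicate) were tested; Vhalf shifts were fitted with a 4-parameter logistic to give EC50 and maximal Vhalf shift, with selectivity based on the shift at 30 μM.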

| EC50 [2] [µM] | Kv7.2/7.3 ΔV1/2 [2] [mV] | SMILES | Kv7.4 selectivity criteria [1] | Kv7.3/7.5 selectivity criteria [3] |
| --- | --- | --- | --- | --- |
| 11.7 | 16.94 | O=C(NCc1ccnc(OCC(F)(F)F)c1)N[C@@H]1CCCC[C@@H]1O [Compound 62, 1-((1R,2S)-2-Hydroxycyclohexyl)-3-((2-(2,2,2-trifluoroethoxy)pyridin-4-yl)methyl) urea] | A (Selective compounds showed Kv7.4 and/or Kv7.3/7.5 ΔV1/2 equal to or lower than 15 mV (letter A in table 3)) | B (Non-selective compounds showed Kv7.4 and/or Kv7.3/7.5 ΔV1/2 higher than 15 mV (letter B in table 3)) |
| 11.8 | 33.01 | O=C(NCc1ccnc(OCC(F)(F)F)c1)N[C@H]1CCCC[C@@H]1O [Compound 63, 1-((1S,2S)-2-Hydroxycyclohexyl)-3-((2-(2,2,2-trifluoroethoxy)pyridin-4-yl)methyl)urea] | B (Non-selective compounds showed Kv7.4 and/or Kv7.3/7.5 ΔV1/2 higher than 15 mV (letter B in table 3)) | B (Non-selective compounds showed Kv7.4 and/or Kv7.3/7.5 ΔV1/2 higher than 15 mV (letter B in table 3)) |
| 0.975 | 26.04 | O=C(NCc1ccnc(OCC(F)(F)F)c1)NCC1CCC(F)(F)CC1 [Compound 70, 1-((4,4-Difluorocyclohexyl)methyl)-3-((2-(2,2,2-trifluoroethoxy)pyridin-4-yl)methyl)urea] | A (Selective compounds showed Kv7.4 and/or Kv7.3/7.5 ΔV1/2 equal to or lower than 15 mV (letter A in table 3)) | A (Selective compounds showed Kv7.4 and/or Kv7.3/7.5 ΔV1/2 equal to or lower than 15 mV (letter A in table 3)) |
| 0.508 | 25.35 | O=C(NCc1ccnc(OCC(F)(F)F)c1)NCc1ccccc1Cl [Compound 75, 1-(2-Chlorobenzyl)-3-((2-(2,2,2-trifluoroethoxy)pyridin-4-yl)methyl)urea] | B (Non-selective compounds showed Kv7.4 and/or Kv7.3/7.5 ΔV1/2 higher than 15 mV (letter B in table 3)) | A (Selective compounds showed Kv7.4 and/or Kv7.3/7.5 ΔV1/2 equal to or lower than 15 mV (letter A in table 3)) |
| 0.549 | 32.37 | O=C(NCc1ccnc(OCC(F)(F)F)c1)Nc1cc(F)cc(Cl)c1 [Compound 77, 1-(3-Chloro-5-fluorophenyl)-3-((2-(2,2,2-trifluoroethoxy)pyridin-4-yl)methyl)urea] | B (Non-selective compounds showed Kv7.4 and/or Kv7.3/7.5 ΔV1/2 higher than 15 mV (letter B in table 3)) | A (Selective compounds showed Kv7.4 and/or Kv7.3/7.5 ΔV1/2 equal to or lower than 15 mV (letter A in table 3)) |
| 0.862 | 26.55 | O=C(NCc1ccnc(OCC(F)(F)F)c1)NCC1CCCC(F)(F)C1 (stereo not shown) [Compound 79, 1-((3,3-Difluorocyclohexyl)methyl)-3-((2-(2,2,2-trifluoroethoxy)pyridin-4-yl)methyl) urea] | A (Selective compounds showed Kv7.4 and/or Kv7.3/7.5 ΔV1/2 equal to or lower than 15 mV (letter A in table 3)) | A (Selective compounds showed Kv7.4 and/or Kv7.3/7.5 ΔV1/2 equal to or lower than 15 mV (letter A in table 3)) |

Second part, the compound before the results:

| SMILES | EC50 [2] [µM] | Kv7.2/7.3 ΔV1/2 [2] [mV] | Kv7.4 selectivity criteria [1] | Kv7.3/7.5 selectivity criteria [3] |
| --- | --- | --- | --- | --- |
| O=C(NCc1ccnc(OCC(F)(F)F)c1)N[C@H]1CCCC[C@H]1O [Compound 58, 1-((1S,2R)-2-Hydroxycyclohexyl)-3-((2-(2,2,2-trifluoroethoxy)pyridin-4-yl)methyl) urea] | 10.5 | 48.9 | B (Non-selective compounds showed Kv7.4 and/or Kv7.3/7.5 ΔV1/2 higher than 15 mV (letter B in table 3)) | B (Non-selective compounds showed Kv7.4 and/or Kv7.3/7.5 ΔV1/2 higher than 15 mV (letter B in table 3)) |
| C[C@@H](NC(=O)NCCC1(C(F)(F)F)CC1)c1ccnc(OCC(F)(F)F)c1 [Compound 65, (R)-1-(1-(2-(2,2,2-Trifluoroethoxy)pyridin-4-yl)ethyl)-3-(2-(1-(trifluoromethyl)cyclopropyl)ethyl)urea] | 0.152 | 26.28 | A (Selective compounds showed Kv7.4 and/or Kv7.3/7.5 ΔV1/2 equal to or lower than 15 mV (letter A in table 3)) | A (Selective compounds showed Kv7.4 and/or Kv7.3/7.5 ΔV1/2 equal to or lower than 15 mV (letter A in table 3)) |
| C[C@H](NC(=O)NCCC1(C(F)(F)F)CC1)c1ccnc(OCC(F)(F)F)c1 [Compound 67, (S)-1-(1-(2-(2,2,2-Trifluoroethoxy)pyridin-4-yl)ethyl)-3-(2-(1-(trifluoromethyl)cyclopropyl)ethyl)urea] | 5 | 23.87 | A (Selective compounds showed Kv7.4 and/or Kv7.3/7.5 ΔV1/2 equal to or lower than 15 mV (letter A in table 3)) | A (Selective compounds showed Kv7.4 and/or Kv7.3/7.5 ΔV1/2 equal to or lower than 15 mV (letter A in table 3)) |
| CN(CC(F)(F)F)c1cc(CNC(=O)NCCC2(C(F)(F)F)CC2)ccn1 [Compound 68, 1-((2-(Methyl(2,2,2-trifluoroethyl)amino)pyridin-4-yl)methyl)-3-(2-(1-(trifluoromethyl)cyclopropyl)ethyl)urea] | 4.73 | 27.19 | A (Selective compounds showed Kv7.4 and/or Kv7.3/7.5 ΔV1/2 equal to or lower than 15 mV (letter A in table 3)) | A (Selective compounds showed Kv7.4 and/or Kv7.3/7.5 ΔV1/2 equal to or lower than 15 mV (letter A in table 3)) |
| O=C(NCCC1(C(F)(F)F)CC1)NCc1ccnc(C(F)(F)F)c1 [Compound 69, 1-(2-(1-(Trifluoromethyl)cyclopropyl)ethyl)-3-((2-(trifluoromethyl)pyridin-4-yl)methyl)urea] | 4.28 | 23.15 | A (Selective compounds showed Kv7.4 and/or Kv7.3/7.5 ΔV1/2 equal to or lower than 15 mV (letter A in table 3)) | A (Selective compounds showed Kv7.4 and/or Kv7.3/7.5 ΔV1/2 equal to or lower than 15 mV (letter A in table 3)) |
| O=C(NCc1ccnc(OCC(F)(F)F)c1)NC1CCC(F)(F)CC1 [Compound 71, 1-(4,4-Difluorocyclohexyl)-3-((2-(2,2,2-trifluoroethoxy)pyridin-4-yl)methyl)urea] | 1.58 | 55.93 | B (Non-selective compounds showed Kv7.4 and/or Kv7.3/7.5 ΔV1/2 higher than 15 mV (letter B in table 3)) | B (Non-selective compounds showed Kv7.4 and/or Kv7.3/7.5 ΔV1/2 higher than 15 mV (letter B in table 3)) |
| CC(C)(C)[C@@H](O)CNC(=O)NCc1ccnc(OCC(F)(F)C(F)(F)F)c1 [Compound 73, (R)-1-(2-Hydroxy-3,3-dimethylbutyl)-3-((2-(2,2,3,3,3-pentafluoropropoxy)pyridin-4-yl)methyl)urea] | 2.47 | 26.35 | A (Selective compounds showed Kv7.4 and/or Kv7.3/7.5 ΔV1/2 equal to or lower than 15 mV (letter A in table 3)) | A (Selective compounds showed Kv7.4 and/or Kv7.3/7.5 ΔV1/2 equal to or lower than 15 mV (letter A in table 3)) |
| O=C(NCCC1(C(F)(F)F)CC1)NCc1ccnc(OCCC(F)(F)F)c1 [Compound 74, 1-(2-(1-(Trifluoromethyl)cyclopropyl)ethyl)-3-((2-(3,3,3-trifluoropropoxy)pyridin-4-yl)methyl)urea] | 1.78 | 26.68 | A (Selective compounds showed Kv7.4 and/or Kv7.3/7.5 ΔV1/2 equal to or lower than 15 mV (letter A in table 3)) | A (Selective compounds showed Kv7.4 and/or Kv7.3/7.5 ΔV1/2 equal to or lower than 15 mV (letter A in table 3)) |
| CC(C)(C)[C@@H](O)CNC(=O)NCc1ccnc(OCCC(F)(F)F)c1 [Compound 78, (R)-1-(2-Hydroxy-3,3-dimethylbutyl)-3-((2-(3,3,3-trifluoropropoxy)pyridin-4-yl)methyl)urea] | 11.7 | 19.21 | A (Selective compounds showed Kv7.4 and/or Kv7.3/7.5 ΔV1/2 equal to or lower than 15 mV (letter A in table 3)) | A (Selective compounds showed Kv7.4 and/or Kv7.3/7.5 ΔV1/2 equal to or lower than 15 mV (letter A in table 3)) |
| O=C(NCCC1(C(F)(F)F)CC1)NCc1ccc(OCC(F)(F)F)nc1 [Compound 80, 1-((6-(2,2,2-Trifluoroethoxy)pyridin-3-yl)methyl)-3-(2-(1-(trifluoromethyl)cyclopropyl)ethyl)urea] | 3.9 | 28.15 | B (Non-selective compounds showed Kv7.4 and/or Kv7.3/7.5 ΔV1/2 higher than 15 mV (letter B in table 3)) | A (Selective compounds showed Kv7.4 and/or Kv7.3/7.5 ΔV1/2 equal to or lower than 15 mV (letter A in table 3)) |

— US20260207563A1, “UREA COMPOUNDS AS ACTIVATORS OF POTASSIUM CHANNELS KV7.2/7.3 USEFUL IN THE TREATMENT OF CNS AND PNS DISORDERS” (ANGELINI PHARMA S.P.A., priority 2022, published 2026)
